Data as given in ChEMBL document CHEMBL1157898 (Bioorg Med Chem Lett, 2010).
Activity calls are given as the source filed them. The calls are words filed in the database; no cut-off is given here.

How the values were obtained:
[1] = biological target: T1, Serine/threonine-protein kinase D2 (Homo sapiens) (UniProt Q9BZL6); experiment: Inhibition of PKD2
T1 sequence (whole entry): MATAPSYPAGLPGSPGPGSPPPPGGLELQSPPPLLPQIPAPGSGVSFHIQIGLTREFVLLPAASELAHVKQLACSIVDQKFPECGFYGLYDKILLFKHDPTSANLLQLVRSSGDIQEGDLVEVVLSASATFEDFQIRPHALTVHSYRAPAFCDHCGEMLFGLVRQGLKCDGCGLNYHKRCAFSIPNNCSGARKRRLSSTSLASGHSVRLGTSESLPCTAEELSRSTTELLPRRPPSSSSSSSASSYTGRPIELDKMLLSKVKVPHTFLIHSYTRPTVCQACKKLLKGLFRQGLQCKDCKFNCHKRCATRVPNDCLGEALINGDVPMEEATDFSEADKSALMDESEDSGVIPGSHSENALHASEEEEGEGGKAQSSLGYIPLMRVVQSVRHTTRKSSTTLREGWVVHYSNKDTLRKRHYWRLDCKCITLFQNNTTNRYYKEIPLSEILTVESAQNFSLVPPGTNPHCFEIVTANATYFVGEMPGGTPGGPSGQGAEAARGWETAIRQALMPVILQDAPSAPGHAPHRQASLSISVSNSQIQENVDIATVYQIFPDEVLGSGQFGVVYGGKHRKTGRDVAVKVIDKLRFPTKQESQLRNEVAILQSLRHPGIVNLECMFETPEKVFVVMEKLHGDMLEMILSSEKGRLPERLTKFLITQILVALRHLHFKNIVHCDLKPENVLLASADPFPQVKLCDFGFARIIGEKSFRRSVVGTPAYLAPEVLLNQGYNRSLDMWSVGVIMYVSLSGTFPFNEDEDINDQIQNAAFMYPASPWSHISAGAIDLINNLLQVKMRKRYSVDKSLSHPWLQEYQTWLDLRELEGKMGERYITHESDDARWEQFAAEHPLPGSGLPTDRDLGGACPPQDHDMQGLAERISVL

[2] = biological target: Ribosomal protein S6 kinase alpha-5 (Homo sapiens) (UniProt O75582); experiment: Inhibition of MSK1
[3] = biological target: T2, MAP kinase-activated protein kinase 5 (Homo sapiens) (UniProt Q8IW41); experiment: Inhibition of PRAK
T2 sequence (whole entry): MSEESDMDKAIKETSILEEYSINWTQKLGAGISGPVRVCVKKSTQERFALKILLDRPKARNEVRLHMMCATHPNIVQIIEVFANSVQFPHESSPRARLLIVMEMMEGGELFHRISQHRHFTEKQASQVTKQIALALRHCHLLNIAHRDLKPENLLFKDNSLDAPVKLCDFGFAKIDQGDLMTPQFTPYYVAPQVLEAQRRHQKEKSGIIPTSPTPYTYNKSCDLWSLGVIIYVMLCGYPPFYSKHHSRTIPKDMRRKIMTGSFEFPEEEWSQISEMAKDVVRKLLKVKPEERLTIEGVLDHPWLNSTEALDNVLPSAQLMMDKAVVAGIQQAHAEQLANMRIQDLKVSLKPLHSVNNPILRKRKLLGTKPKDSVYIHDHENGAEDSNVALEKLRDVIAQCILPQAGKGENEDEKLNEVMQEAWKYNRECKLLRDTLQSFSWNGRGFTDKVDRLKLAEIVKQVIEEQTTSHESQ

[4] = biological target: MAP kinase-activated protein kinase 2 (Homo sapiens) (UniProt P49137); experiment: Inhibition of MAPKAPK2
[5] = biological target: Tyrosine-protein kinase Fyn (Homo sapiens) (UniProt P06241); experiment: Inhibition of FYN
[6] = biological target: Mitogen-activated protein kinase 14 (Homo sapiens) (UniProt Q16539); experiment: Inhibition of P38alpha
[7] = biological target: Tyrosine-protein kinase Lyn (Homo sapiens) (UniProt P07948); experiment: Inhibition of LYN
[8] = biological target: T3, Gamma-secretase (Homo sapiens) (UniProt Q96BI3+Q9NZ42+Q8WW43+P49768+Q92542+P49810); experiment: Inhibition of gamma secretase mediated amyloid beta 42 generation in human H4 cells at 10 uM by LPECL assay; values are per cent of control
[9] = biological target: Mitogen-activated protein kinase kinase kinase kinase 4 (Homo sapiens) (UniProt O95819); experiment: Inhibition of HGK
[10] = biological target: Serine/threonine-protein kinase MARK1 (Homo sapiens) (UniProt Q9P0L2); experiment: Inhibition of MARK1
[11] = biological target: Insulin-like growth factor 1 receptor (Homo sapiens) (UniProt P08069); experiment: Inhibition of IGF1R
[12] = biological target: T3, Gamma-secretase (Homo sapiens); experiment: Inhibition of gamma secretase mediated amyloid beta 40 generation in human H4 cells at 10 uM by LPECL assay; values are per cent of control
[13] = biological target: Serine/threonine-protein kinase pim-2 (Homo sapiens) (UniProt Q9P1W9); experiment: Inhibition of PIM2
[14] = Inhibition of PKA
[15] = biological target: T4, Serine/threonine-protein kinase 3 (Homo sapiens) (UniProt Q13188); experiment: Inhibition of MST2
T4 sequence (whole entry): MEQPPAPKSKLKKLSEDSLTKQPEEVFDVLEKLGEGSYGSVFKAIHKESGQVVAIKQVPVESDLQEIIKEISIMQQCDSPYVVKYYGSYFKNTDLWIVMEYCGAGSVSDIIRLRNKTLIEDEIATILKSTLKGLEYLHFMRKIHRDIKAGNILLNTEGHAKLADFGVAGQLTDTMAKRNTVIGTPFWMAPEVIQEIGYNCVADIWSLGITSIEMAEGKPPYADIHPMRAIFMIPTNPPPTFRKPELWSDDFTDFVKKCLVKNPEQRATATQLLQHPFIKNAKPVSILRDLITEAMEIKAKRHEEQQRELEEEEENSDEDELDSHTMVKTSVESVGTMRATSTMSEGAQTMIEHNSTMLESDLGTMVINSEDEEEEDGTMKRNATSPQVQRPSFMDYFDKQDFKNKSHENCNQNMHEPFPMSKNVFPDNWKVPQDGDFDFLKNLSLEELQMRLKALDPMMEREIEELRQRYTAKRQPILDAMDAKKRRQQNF

[16] = biological target: Protein kinase C beta type (Homo sapiens) (UniProt P05771); experiment: Inhibition of PKCbeta2
[17] = biological target: Ribosomal protein S6 kinase beta-1 (Homo sapiens) (UniProt P23443); experiment: Inhibition of p70S6K
[18] = biological target: Serine/threonine-protein kinase PAK 2 (Homo sapiens) (UniProt Q13177); experiment: Inhibition of PAK2
Chain of Serine/threonine-protein kinase PAK 2 (Homo sapiens) (Q13177 whole entry): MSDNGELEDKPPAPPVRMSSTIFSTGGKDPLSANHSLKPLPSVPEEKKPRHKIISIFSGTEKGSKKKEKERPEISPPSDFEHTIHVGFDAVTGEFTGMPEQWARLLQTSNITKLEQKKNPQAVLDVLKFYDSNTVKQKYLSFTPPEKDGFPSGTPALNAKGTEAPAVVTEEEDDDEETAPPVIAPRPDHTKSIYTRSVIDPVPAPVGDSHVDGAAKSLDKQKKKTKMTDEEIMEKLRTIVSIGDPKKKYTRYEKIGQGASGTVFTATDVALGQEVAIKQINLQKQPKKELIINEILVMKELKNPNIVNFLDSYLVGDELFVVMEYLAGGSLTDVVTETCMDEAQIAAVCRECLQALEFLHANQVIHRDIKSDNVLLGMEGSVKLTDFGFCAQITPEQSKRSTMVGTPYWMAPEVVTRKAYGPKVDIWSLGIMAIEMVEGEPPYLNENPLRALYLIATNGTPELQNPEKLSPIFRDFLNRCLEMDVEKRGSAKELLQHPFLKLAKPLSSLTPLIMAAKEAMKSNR

Chain of Ribosomal protein S6 kinase beta-1 (Homo sapiens) (P23443 whole entry, looked up): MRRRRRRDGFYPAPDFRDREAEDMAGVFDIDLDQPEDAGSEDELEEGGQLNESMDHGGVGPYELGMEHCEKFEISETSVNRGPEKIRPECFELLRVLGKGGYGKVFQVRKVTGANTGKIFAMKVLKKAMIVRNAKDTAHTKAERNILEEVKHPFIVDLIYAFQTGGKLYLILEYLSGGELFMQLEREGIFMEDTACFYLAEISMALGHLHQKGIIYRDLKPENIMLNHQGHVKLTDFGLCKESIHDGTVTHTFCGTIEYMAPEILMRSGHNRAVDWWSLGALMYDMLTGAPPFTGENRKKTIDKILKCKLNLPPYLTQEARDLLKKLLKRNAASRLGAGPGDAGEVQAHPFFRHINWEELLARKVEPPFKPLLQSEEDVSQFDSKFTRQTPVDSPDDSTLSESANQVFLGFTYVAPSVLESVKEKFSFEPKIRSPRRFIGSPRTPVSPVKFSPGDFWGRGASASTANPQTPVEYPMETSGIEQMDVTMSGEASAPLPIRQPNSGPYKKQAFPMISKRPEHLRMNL
Chain of Tyrosine-protein kinase Lyn (Homo sapiens) (P07948 2-512 limits assumed): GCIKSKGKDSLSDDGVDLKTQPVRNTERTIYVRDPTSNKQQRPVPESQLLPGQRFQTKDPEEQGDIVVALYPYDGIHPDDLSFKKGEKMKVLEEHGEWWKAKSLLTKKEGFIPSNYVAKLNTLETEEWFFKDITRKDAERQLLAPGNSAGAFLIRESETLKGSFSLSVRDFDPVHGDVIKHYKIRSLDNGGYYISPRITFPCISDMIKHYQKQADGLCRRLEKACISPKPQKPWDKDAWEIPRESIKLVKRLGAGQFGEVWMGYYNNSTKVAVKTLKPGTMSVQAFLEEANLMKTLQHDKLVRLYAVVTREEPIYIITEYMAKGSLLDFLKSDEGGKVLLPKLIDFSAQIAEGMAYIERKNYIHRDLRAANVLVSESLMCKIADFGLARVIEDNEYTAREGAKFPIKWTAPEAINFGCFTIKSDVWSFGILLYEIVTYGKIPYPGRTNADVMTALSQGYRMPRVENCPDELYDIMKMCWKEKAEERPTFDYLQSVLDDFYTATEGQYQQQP
Chain of Serine/threonine-protein kinase pim-2 (Homo sapiens) (Q9P1W9 whole entry, looked up): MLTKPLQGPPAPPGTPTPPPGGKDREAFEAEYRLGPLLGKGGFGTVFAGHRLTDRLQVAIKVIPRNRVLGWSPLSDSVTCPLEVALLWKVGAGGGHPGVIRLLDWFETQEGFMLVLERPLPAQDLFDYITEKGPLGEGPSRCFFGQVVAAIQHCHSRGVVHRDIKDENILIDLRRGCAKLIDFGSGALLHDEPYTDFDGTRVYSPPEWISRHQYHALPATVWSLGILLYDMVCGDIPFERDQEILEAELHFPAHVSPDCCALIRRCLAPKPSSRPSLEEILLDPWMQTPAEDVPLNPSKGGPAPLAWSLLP
Chain of MAP kinase-activated protein kinase 2 (Homo sapiens) (P49137 whole entry, looked up): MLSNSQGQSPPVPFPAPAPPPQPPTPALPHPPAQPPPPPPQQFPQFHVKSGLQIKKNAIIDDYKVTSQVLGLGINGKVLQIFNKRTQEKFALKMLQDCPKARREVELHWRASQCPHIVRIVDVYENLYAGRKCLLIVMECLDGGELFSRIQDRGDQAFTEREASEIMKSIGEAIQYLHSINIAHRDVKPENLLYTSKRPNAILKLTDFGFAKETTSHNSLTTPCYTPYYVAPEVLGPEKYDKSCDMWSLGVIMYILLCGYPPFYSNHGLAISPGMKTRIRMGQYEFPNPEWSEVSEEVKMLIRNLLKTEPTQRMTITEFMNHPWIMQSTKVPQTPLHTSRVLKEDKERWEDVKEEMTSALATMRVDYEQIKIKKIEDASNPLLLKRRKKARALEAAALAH
Chain of Serine/threonine-protein kinase MARK1 (Homo sapiens) (Q9P0L2 whole entry, looked up): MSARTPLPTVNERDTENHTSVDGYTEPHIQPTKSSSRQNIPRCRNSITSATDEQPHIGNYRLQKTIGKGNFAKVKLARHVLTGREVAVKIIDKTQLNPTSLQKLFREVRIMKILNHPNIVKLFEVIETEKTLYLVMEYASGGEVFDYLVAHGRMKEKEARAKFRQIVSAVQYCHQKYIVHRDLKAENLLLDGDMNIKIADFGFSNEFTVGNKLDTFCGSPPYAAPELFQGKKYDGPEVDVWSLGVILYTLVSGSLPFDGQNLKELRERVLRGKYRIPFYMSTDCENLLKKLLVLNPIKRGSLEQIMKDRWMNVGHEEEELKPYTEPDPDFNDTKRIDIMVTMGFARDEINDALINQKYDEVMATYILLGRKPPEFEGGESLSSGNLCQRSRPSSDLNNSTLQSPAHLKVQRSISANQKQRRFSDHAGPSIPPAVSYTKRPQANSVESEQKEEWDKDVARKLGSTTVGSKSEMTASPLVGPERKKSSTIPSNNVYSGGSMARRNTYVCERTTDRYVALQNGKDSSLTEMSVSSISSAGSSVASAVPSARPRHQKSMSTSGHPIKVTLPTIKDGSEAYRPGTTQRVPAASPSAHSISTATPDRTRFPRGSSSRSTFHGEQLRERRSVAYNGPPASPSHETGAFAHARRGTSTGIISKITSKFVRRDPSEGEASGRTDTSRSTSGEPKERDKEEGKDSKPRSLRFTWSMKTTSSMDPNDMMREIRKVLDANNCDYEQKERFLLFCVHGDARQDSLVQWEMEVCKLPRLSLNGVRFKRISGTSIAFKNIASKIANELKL
Chain of Insulin-like growth factor 1 receptor (Homo sapiens) (P08069 31-736 limits assumed): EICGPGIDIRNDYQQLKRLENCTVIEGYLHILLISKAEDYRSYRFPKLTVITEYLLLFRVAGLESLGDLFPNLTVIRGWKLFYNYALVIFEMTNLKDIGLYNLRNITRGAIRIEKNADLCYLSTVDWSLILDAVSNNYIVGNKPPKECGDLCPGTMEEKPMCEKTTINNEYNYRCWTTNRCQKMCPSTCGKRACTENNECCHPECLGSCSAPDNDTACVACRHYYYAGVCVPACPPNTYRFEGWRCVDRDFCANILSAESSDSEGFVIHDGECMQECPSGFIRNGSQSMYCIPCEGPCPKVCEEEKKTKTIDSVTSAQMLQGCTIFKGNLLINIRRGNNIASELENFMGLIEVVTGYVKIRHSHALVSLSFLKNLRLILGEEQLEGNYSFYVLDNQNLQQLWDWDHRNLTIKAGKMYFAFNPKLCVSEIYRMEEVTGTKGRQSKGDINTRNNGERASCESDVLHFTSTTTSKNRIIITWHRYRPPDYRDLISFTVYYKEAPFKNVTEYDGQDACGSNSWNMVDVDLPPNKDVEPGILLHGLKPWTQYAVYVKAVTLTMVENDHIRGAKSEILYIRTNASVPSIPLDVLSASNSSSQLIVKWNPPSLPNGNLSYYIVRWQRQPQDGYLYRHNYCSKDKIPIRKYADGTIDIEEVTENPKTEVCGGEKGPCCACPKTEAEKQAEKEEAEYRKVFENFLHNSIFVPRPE
Chain of Insulin-like growth factor 1 receptor (Homo sapiens) (P08069 741-1367 limits assumed): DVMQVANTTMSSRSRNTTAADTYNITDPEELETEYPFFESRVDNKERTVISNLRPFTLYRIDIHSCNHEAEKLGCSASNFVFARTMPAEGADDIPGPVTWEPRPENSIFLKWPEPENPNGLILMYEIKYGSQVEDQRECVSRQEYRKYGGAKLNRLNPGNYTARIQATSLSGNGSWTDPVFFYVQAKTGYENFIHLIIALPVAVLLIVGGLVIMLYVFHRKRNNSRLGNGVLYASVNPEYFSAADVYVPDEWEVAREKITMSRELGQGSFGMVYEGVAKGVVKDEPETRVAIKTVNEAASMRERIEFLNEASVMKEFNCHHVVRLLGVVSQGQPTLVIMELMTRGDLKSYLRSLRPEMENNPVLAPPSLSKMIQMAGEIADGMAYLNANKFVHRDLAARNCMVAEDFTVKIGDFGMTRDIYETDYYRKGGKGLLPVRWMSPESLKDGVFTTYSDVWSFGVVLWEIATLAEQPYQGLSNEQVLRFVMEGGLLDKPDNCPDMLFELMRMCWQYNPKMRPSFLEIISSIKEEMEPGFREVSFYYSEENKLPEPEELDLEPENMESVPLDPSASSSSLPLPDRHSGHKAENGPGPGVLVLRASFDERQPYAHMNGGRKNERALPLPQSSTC
Chain of Mitogen-activated protein kinase 14 (Homo sapiens) (Q16539 whole entry): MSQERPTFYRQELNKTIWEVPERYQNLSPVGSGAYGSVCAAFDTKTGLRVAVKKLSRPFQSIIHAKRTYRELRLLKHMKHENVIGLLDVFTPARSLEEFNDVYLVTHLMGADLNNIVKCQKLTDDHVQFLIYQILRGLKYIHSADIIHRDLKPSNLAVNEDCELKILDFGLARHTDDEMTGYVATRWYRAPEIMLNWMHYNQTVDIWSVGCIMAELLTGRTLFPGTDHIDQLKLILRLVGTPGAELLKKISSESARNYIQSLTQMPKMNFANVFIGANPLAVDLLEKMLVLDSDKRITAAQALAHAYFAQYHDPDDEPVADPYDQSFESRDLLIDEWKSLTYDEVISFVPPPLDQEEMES

SMILES | inhibition [1] | inhibition [2] | inhibition [3] | inhibition [4] | inhibition [5] | inhibition [6] | inhibition [7] | residual activity [8] [%] | inhibition [9] | inhibition [10] | inhibition [11] | residual activity [12] [%] | inhibition [13] | inhibition [14] | inhibition [15] | inhibition [16] | inhibition [17] | inhibition [18]
CCN(CC)CCNC(=O)c1c(C)[nH]c(/C=C2\C(=O)Nc3ccc(F)cc32)c1C [SUNITINIB] | inactive | inactive | inactive | inactive | inactive | inactive | inactive | 26 | inactive | inactive | inactive | 53 | inactive | inactive | inactive | inactive | inactive | inactive
COc1ccc(/C=C2/C(=O)Nc3ccc(Cl)cc32)c(OC)c1OC | inactive | inactive | inactive | inactive | inactive | inactive | inactive | 47 | inactive | inactive | inactive | 46 | inactive | inactive | inactive | inactive | inactive | inactive
